Test results from US6469060B2, “Compositions based on iodopropynyl-and formaldehyde donor compounds and to their use as preservatives” (Air Liquide Sante (International), priority 1997, dated 2002).

Columns and labels:
[1] = Stability and compatibility of IPBC with various N-formals, storage at +40° C. in clear glass (Example 2); assay type: physicochemical; conditions: discoloration and IPBC degradation
Experimental: The stability and compatibility of IPBC in compositions containing 3% by weight of IPBC, from 80 to 97% by weight of N-formals and […] by weight of 1,2-PLG were determined as a function of the storage time after the solutions had been stored at a temperature of +40° C. in clear glass.
The initially clear, colorless to slightly yellowish solutions became discoloured to varying degrees after storage for three months at a temperature of +40° C. Only the compositions based on IPBC and Mar 71 retained their clear, slightly yellowish appearance.
A summary of the development of the IPBC content, determined by means of HPLC (IPBC starting content 3% by weight) in the compositions investigated as a function of the storage period, is given in Table IV.

[2] = Formaldehyde emission of N-formals, Dräger tubes (Example 9); assay type: physicochemical; conditions: pure N-formal, 1 g overnight in covered 400 ml beaker; for formaldehyde content: Dräger tubes (10 strokes)
Experimental: For this purpose, 1 g of each of the N-formals was left to stand overnight in a 400 ml beaker covered with para-film. On the following day, the formaldehyde content was then measured using Dräger tubes (10 strokes) as described in Example 1.
The formaldehyde content was 15 ppm (2 strokes 3 ppm) in 3,3′-methylenebis(tetrahydro-2H-1,3-oxazine) and 25 ppm (2 strokes 5 ppm) in Mar 71™. Preparations of 80% by weight of each N-formal and 20% by weight of 1,2-propylene glycol display a clearly different behavior. For example, the addition of 1,2-PLG to 3,3′-methylenebis(tetrahydro-2H-1,3-oxazine) leads to a reduction in the formaldehyde content to form 1.5 to 2.5 ppm (20 strokes) and the addition to Mar 71™ to a reduction to 10 ppm (5 strokes 5 ppm), the formaldehyde content being determined as described above for pure N-formals.

Compatibility with IPBC [1]	formaldehyde content, reading at 2 strokes [2]	formaldehyde content [2]	Compound
incompatible	–	–	OCCN1CN(CCO)CN(CCO)C1 [Grotan BK TM, 1,3,5-tris(hydroxyethyl)hexahydrotriazine]
–	3 ppm	15 ppm	C1COCN(CN2CCCOC2)C1 [3,3′-methylenebis(tetrahydro-2H-1,3-oxazine), reference compound]
–	5 ppm	25 ppm	CC1CN(CN2COC(C)C2)CO1 (centres unmarked) [Mar 71™, 3,3′-methylenebis(5-methyloxazolidine)]
